Data taken from patent US8247211B2, “Glycopeptide antibiotics” (American Cyanamid Company, priority 2001, dated 2012).
In brackets after ≈: the same amount, converted by molar mass.

Experiments:
[1] = test system: Enterococcus sp.; test: In vitro antibacterial evaluation: minimum inhibitory concentration (MIC), broth dilution method; format: cell-based
Procedure, shortened: (§1)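 Susceptibility determined by NCCLS-recommended broth dilution (M7-A2), Muller-Hinton II […]. Concentration span 64-0.06 μg/mL, inoculum 5×10^5 CFU/mL. Isolates include strains resistant to methicillin, penicillin and/or vancomycin.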

[2] = test system: Escherichia coli; test: as above; format: cell-based; conditions: strain GC 4560
Procedure, shortened: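 An MIC is reported for each organism as the least concentration giving inhibition, using broth dilution over 64-0.06 μg/mL with a 5×10^5 CFU/mL inoculum.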

[3] = test system: Staphylococcus sp.; test: as above; format: cell-based; conditions: broth dilution, 18 hours at 35° C.
Procedure, shortened: as §1

[4] = test system: Streptococcus sp.; test: as above; format: cell-based
Procedure, shortened: as §1

[5] = test system: Staphylococcus aureus-SMITH (GC 4543); test: Acute lethal infection in mice (ED50); format: in vivo; conditions: female CD-1 mice, intraperitoneal challenge, intravenous dose 30 min. after infection, 7 day survival ratios
Procedure, shortened: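 Lethal systemic infection model: female CD-1 mice, 20 ± 1-2 g, intraperitoneal challenge. Single intravenous treatment 30 min after infection; 7-day survival, pooled from 3 tests, gives ED50.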

[6] = format: in vivo; conditions: mice, 20 mg/kg intravenously daily for 9 days, serum on day 10
Method: 20-day-old CD-1 mice were divided into a vehicle control group (5 mice) and a treatment group (5 mice). Samples of glycopeptide antibiotics were administered at 20 mg/kg intravenously daily for 9 days. Animals were necropsied on day 10 Sera were analyzed for BUN (blood urea nitrogen), creatinine, AST (aspartic aminotransferase), and ALT (alanine aminotransferase) by routine, standard, automated methods using an Hitachi 747 chemistry analyzer.

[7] = Anatomic pathology (heart and kidney histopathology) in mice; format: in vivo, CD-1 mice; conditions: 20 mg/kg intravenously daily for 9 days, microscopic histopathology on day 10
Procedure, shortened: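 Juvenile CD-1 mice (20 days old; 5 vehicle, 5 treated) received glycopeptide antibiotic 20 mg/kg i.v. daily for 9 days. Necropsied tissues formalin-fixed, paraffin-embedded, H&E stained and examined microscopically; findings graded slight to severe versus controls.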

With CC(c1ccccc1)C1NC(=O)CNC(=O)C(CO)NC(=O)C(C(O)C2CN(Cc3ccc(-c4ccccc4)cc3)C(=N)N2C2OC(CO)C(O)C(O)C2O)NC(=O)C(C(O)C2CNC(=NCc3ccc(-c4ccccc4)cc3)N2Cc2ccc(-c3ccccc3)cc2)NC(=O)C(Cc2ccc(OC3OC(CO)C(OC4OC(CO)C(O)C(O)C4O)C(O)C3O)cc2)NC1=O (stereo not drawn) [Example 66] the “MIC Enterococcus avium (GC 4558)” value ([1]; Enterococcus avium (GC 4558), broth dilution, 18 hours at 35° C.) was 4 µg/mL (≈ 2.23 µM), the “MIC Enterococcus faecalis (ATCC 29212)” value ([1]; Enterococcus faecalis (ATCC 29212), broth dilution, 18 hours at 35° C.) was 16 µg/mL (≈ 8.92 µM) and the “MIC Enterococcus faecalis (GC 2242)” value ([1]; Enterococcus faecalis (GC 2242), broth dilution, 18 hours at 35° C.) was 16 µg/mL (≈ 8.92 µM). The “MIC Enterococcus faecalis (GC 2691)” value ([1]; Enterococcus faecalis (GC 2691), broth dilution, 18 hours at 35° C.) was 32 µg/mL (≈ 17.8 µM), the “MIC Enterococcus faecalis (GC 3059)” value ([1]; Enterococcus faecalis (GC 3059), broth dilution, 18 hours at 35° C.) was 32 µg/mL (≈ 17.8 µM) and the “MIC Enterococcus faecalis (GC 4552)” value ([1]; Enterococcus faecalis (GC 4552), broth dilution, 18 hours at 35° C.) was 32 µg/mL (≈ 17.8 µM). For the same compound, the “MIC Enterococcus faecalis (GC 4553)” value ([1]; Enterococcus faecalis (GC 4553), broth dilution, 18 hours at 35° C.) was 8 µg/mL (≈ 4.46 µM), the “MIC Enterococcus faecalis (GC 4554)” value ([1]; Enterococcus faecalis (GC 4554), broth dilution, 18 hours at 35° C.) was 64 µg/mL (≈ 35.7 µM) and the “MIC Enterococcus faecalis (GC 6189)” value ([1]; Enterococcus faecalis (GC 6189), broth dilution, 18 hours at 35° C.) was 32 µg/mL (≈ 17.8 µM). The “MIC Enterococcus faecium (GC 2243)” value ([1]; Enterococcus faecium (GC 2243), broth dilution, 18 hours at 35° C.) was 8 µg/mL (≈ 4.46 µM), the “MIC Enterococcus faecium (GC 4556)” value ([1]; Enterococcus faecium (GC 4556), broth dilution, 18 hours at 35° C.) was 32 µg/mL (≈ 17.8 µM) and the “MIC Enterococcus faecium (GC 4557)” value ([1]; Enterococcus faecium (GC 4557), broth dilution, 18 hours at 35° C.) was 4 µg/mL (≈ 2.23 µM). The “MIC Enterococcus faecalis (ATCC 29212)” value ([1]; strain ATCC 29212) was 16 µg/mL (≈ 8.92 µM), the “MIC Enterococcus faecalis (GC 2242)” value ([1]; strain GC 2242) was 16 µg/mL (≈ 8.92 µM) and the “MIC Enterococcus faecium (GC 2243)” value ([1]; strain GC 2243) was 8 µg/mL (≈ 4.46 µM). For the same compound, the “MIC Enterococcus faecalis (GC 2691)” value ([1]; strain GC 2691) was 32 µg/mL (≈ 17.8 µM), the “MIC Enterococcus faecalis (GC 3059)” value ([1]; strain GC 3059) was 32 µg/mL (≈ 17.8 µM) and the “MIC Enterococcus faecalis (GC 4552)” value ([1]; strain GC 4552) was 32 µg/mL (≈ 17.8 µM). The “MIC Enterococcus faecalis (GC 4553)” value ([1]; strain GC 4553) was 8 µg/mL (≈ 4.46 µM), the “MIC Enterococcus faecalis (GC 4554)” value ([1]; strain GC 4554) was 64 µg/mL (≈ 35.7 µM) and the “MIC Enterococcus faecium (GC 4556)” value ([1]; strain GC 4556) was 32 µg/mL (≈ 17.8 µM). The “MIC Enterococcus faecium (GC 4557)” value ([1]; strain GC 4557) was 4 µg/mL (≈ 2.23 µM), the “MIC Enterococcus avium (GC 4558)” value ([1]; strain GC 4558) was 4 µg/mL (≈ 2.23 µM) and the “MIC Enterococcus faecalis (GC 6189)” value ([1]; strain GC 6189) was 32 µg/mL (≈ 17.8 µM). The “MIC Escherichia coli (GC 4560)” value [2] was 4 µg/mL (≈ 2.23 µM), the “MIC Coagulase Negative Staphylococcus (GC 4547)” value [3] was 4 µg/mL (≈ 2.23 µM) and the “MIC Coagulase Negative Staphylococcus (GC 4548)” value [3] was 8 µg/mL (≈ 4.46 µM). For the same compound, the “MIC Coagulase Negative Staphylococcus (GC 4549)” value [3] was 4 µg/mL (≈ 2.23 µM), the “MIC Coagulase Negative Staphylococcus (GC 4551)” value [3] was 8 µg/mL (≈ 4.46 µM) and the “MIC Coagulase Negative Staphylococcus (GC 6257)” value [3] was 4 µg/mL (≈ 2.23 µM). The “MIC Staphylococcus aureus (ATCC 29213)” value [3] was 8 µg/mL (≈ 4.46 µM), the “MIC Staphylococcus aureus (GC 1131)” value [3] was 16 µg/mL (≈ 8.92 µM) and the “MIC Staphylococcus aureus (GC 3051)” value [3] was 8 µg/mL (≈ 4.46 µM). For the same compound, the “MIC Staphylococcus aureus (GC 3053)” value [3] was 8 µg/mL (≈ 4.46 µM), the “MIC Staphylococcus aureus (GC 4541)” value [3] was 8 µg/mL (≈ 4.46 µM) and the “MIC Staphylococcus aureus (GC 4542)” value [3] was 8 µg/mL (≈ 4.46 µM). The “MIC Staphylococcus aureus (GC 4544)” value [3] was 8 µg/mL (≈ 4.46 µM), the “MIC Staphylococcus aureus (GC 4545)” value [3] was 4 µg/mL (≈ 2.23 µM) and the “MIC Staphylococcus aureus SMITH (GC 4543)” value [3] was 8 µg/mL (≈ 4.46 µM). The “MIC Staphylococcus haemolyticus (GC 4546)” value [3] was 4 µg/mL (≈ 2.23 µM), the “MIC Staphylococcus aureus (ATCC 29213)” value ([3]; strain ATCC 29213) was 8 µg/mL (≈ 4.46 µM) and the “MIC Staphylococcus aureus (GC 1131)” value ([3]; strain GC 1131) was 16 µg/mL (≈ 8.92 µM). The “MIC Staphylococcus aureus (GC 3051)” value ([3]; strain GC 3051) was 8 µg/mL (≈ 4.46 µM), the “MIC Staphylococcus aureus (GC 3053)” value ([3]; strain GC 3053) was 8 µg/mL (≈ 4.46 µM) and the “MIC Staphylococcus aureus (GC 4541)” value ([3]; strain GC 4541) was 8 µg/mL (≈ 4.46 µM). For the same compound, the “MIC Staphylococcus aureus (GC 4542)” value ([3]; strain GC 4542) was 8 µg/mL (≈ 4.46 µM), the “MIC Staphylococcus aureus (GC 4544)” value ([3]; strain GC 4544) was 8 µg/mL (≈ 4.46 µM) and the “MIC Staphylococcus aureus (GC 4545)” value ([3]; strain GC 4545) was 4 µg/mL (≈ 2.23 µM). The “MIC Coagulase Negative Staphylococcus (GC 4547)” value ([3]; strain GC 4547) was 4 µg/mL (≈ 2.23 µM), the “MIC Coagulase Negative Staphylococcus (GC 4548)” value ([3]; strain GC 4548) was 8 µg/mL (≈ 4.46 µM) and the “MIC Coagulase Negative Staphylococcus (GC 4549)” value ([3]; strain GC 4549) was 4 µg/mL (≈ 2.23 µM). The “MIC Coagulase Negative Staphylococcus (GC 4551)” value ([3]; strain GC 4551) was 8 µg/mL (≈ 4.46 µM), the “MIC Coagulase Negative Staphylococcus (GC 6257)” value ([3]; strain GC 6257) was 4 µg/mL (≈ 2.23 µM) and the “MIC Staphylococcus aureus-SMITH (GC 4543)” value ([3]; strain SMITH GC 4543) was 8 µg/mL (≈ 4.46 µM). For the same compound, the “MIC Streptococcus agalactiae (GC 4564)” value ([4]; Streptococcus agalactiae (GC 4564), broth dilution, 18 hours at 35° C.) was 32 µg/mL (≈ 17.8 µM), the “MIC Streptococcus pneumoniae (ATCC 6301)” value ([4]; Streptococcus pneumoniae (ATCC 6301), broth dilution, 18 hours at 35° C.) was 32 µg/mL (≈ 17.8 µM) and the “MIC Streptococcus pneumoniae (GC 1894)” value ([4]; Streptococcus pneumoniae (GC 1894), broth dilution, 18 hours at 35° C.) was 32 µg/mL (≈ 17.8 µM). The “MIC Streptococcus pneumoniae (GC 4565)” value ([4]; Streptococcus pneumoniae (GC 4565), broth dilution, 18 hours at 35° C.) was 64 µg/mL (≈ 35.7 µM), the “MIC Streptococcus pyogenes (GC 4563)” value ([4]; Streptococcus pyogenes (GC 4563), broth dilution, 18 hours at 35° C.) was 16 µg/mL (≈ 8.92 µM) and the “MIC Streptococcus pneumoniae (ATCC 6301)” value ([4]; strain ATCC 6301) was 32 µg/mL (≈ 17.8 µM). The “MIC Streptococcus pneumoniae (GC 1894)” value ([4]; strain GC 1894) was 32 µg/mL (≈ 17.8 µM), the “MIC Streptococcus pyogenes (GC 4563)” value ([4]; strain GC 4563) was 16 µg/mL (≈ 8.92 µM) and the “MIC Streptococcus agalactiae (GC 4564)” value ([4]; strain GC 4564) was 32 µg/mL (≈ 17.8 µM). The “MIC Streptococcus pneumoniae (GC 4565)” value ([4]; strain GC 4565) was 64 µg/mL (≈ 35.7 µM), the “median effective dose (ED50), Staphylococcus aureus-SMITH (GC 4543)” value [5] was over 8 and the “Clinical Chemistry (Day 10) % of Control, ALT” value [6] was 182%. The “Clinical Chemistry (Day 10) % of Control, AST” value [6] was 147%, the “Anatomical Pathology (Day 10), Heart” value [7] was 0 and the “Anatomical Pathology (Day 10), Kidney” value [7] was 0.
